#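 48-hour exposure; five concentrations; linearly interpolated endpoints. GI50 = concentration required for 50% inhibition of growth. TGI marks complete inhibition of growth.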
# What was measured:
# Test in all cases: DTP human tumour cell line panel, 48 h
# HT29 colon = tested on: HT29 colon
# RPMI-8226 leukemia = tested on: RPMI-8226 leukemia
# NCI-H23 lung = tested on: NCI-H23 lung
# SF-539 CNS = tested on: SF-539 CNS
# NCI/ADR-RES ovarian = tested on: NCI/ADR-RES ovarian
# RXF 393 renal = tested on: RXF 393 renal
# SK-MEL-2 melanoma = tested on: SK-MEL-2 melanoma
# PC-3 prostate = tested on: PC-3 prostate
# NCI-H460 lung = tested on: NCI-H460 lung
# SF-268 CNS = tested on: SF-268 CNS
# UO-31 renal = tested on: UO-31 renal
# A549 NSCLC = tested on: A549 NSCLC
# KM12 colon = tested on: KM12 colon
# SN12C renal = tested on: SN12C renal
# MCF7 breast = tested on: MCF7 breast
# ACHN renal = tested on: ACHN renal
# T-47D breast = tested on: T-47D breast
# UACC-62 melanoma = tested on: UACC-62 melanoma
# HOP-62 NSCLC = tested on: HOP-62 NSCLC
# MDA-MB-231 breast = tested on: MDA-MB-231 breast
# HL-60(TB) leukemia = tested on: HL-60(TB) leukemia
# SW-620 colon = tested on: SW-620 colon
# MDA-MB-435 = tested on: MDA-MB-435
# NCI-H226 lung = tested on: NCI-H226 lung
# NCI-H522 lung = tested on: NCI-H522 lung
# SNB-19 CNS = tested on: SNB-19 CNS
# K-562 leukemia = tested on: K-562 leukemia
# CCRF-CEM leukemia = tested on: CCRF-CEM leukemia
structure (smiles),measurement,setting,value
O=C(NC1CCN(Cc2ccccc2)CC1)c1cc(-c2ccncc2)nc2ccc(Cl)cc12,GI50,HT29 colon,4.7 µM
same,TGI,HT29 colon,19.7 µM
same,GI50,RPMI-8226 leukemia,12.4 µM
same,TGI,RPMI-8226 leukemia,> 74 µM
same,GI50,NCI-H23 lung,43.5 µM
same,TGI,NCI-H23 lung,> 100 µM
same,GI50,SF-539 CNS,13.1 µM
same,TGI,SF-539 CNS,35.9 µM
same,GI50,NCI/ADR-RES ovarian,22.2 µM
same,TGI,NCI/ADR-RES ovarian,> 100 µM
same,GI50,RXF 393 renal,5.48 µM
same,TGI,RXF 393 renal,49.2 µM
same,GI50,SK-MEL-2 melanoma,29.8 µM
same,TGI,SK-MEL-2 melanoma,87.1 µM
same,GI50,PC-3 prostate,13.6 µM
same,TGI,PC-3 prostate,> 100 µM
same,GI50,NCI-H460 lung,11.4 µM
same,TGI,NCI-H460 lung,33.7 µM
same,GI50,SF-268 CNS,22.6 µM
same,TGI,SF-268 CNS,> 100 µM
same,GI50,UO-31 renal,3.12 µM
same,TGI,UO-31 renal,33.9 µM
same,GI50,A549 NSCLC,10.6 µM
same,TGI,A549 NSCLC,54.2 µM
same,GI50,KM12 colon,24.1 µM
same,TGI,KM12 colon,> 100 µM
same,GI50,SN12C renal,35.6 µM
same,TGI,SN12C renal,> 100 µM
same,GI50,MCF7 breast,5.66 µM
same,TGI,MCF7 breast,30.6 µM
same,GI50,ACHN renal,6.71 µM
same,TGI,ACHN renal,24.7 µM
same,GI50,T-47D breast,13.3 µM
same,TGI,T-47D breast,49.1 µM
same,GI50,UACC-62 melanoma,20.6 µM
same,TGI,UACC-62 melanoma,> 85.3 µM
same,GI50,HOP-62 NSCLC,14.5 µM
same,TGI,HOP-62 NSCLC,> 100 µM
same,GI50,MDA-MB-231 breast,4.5 µM
same,TGI,MDA-MB-231 breast,> 59.9 µM
same,GI50,HL-60(TB) leukemia,17.3 µM
same,TGI,HL-60(TB) leukemia,59.6 µM
same,GI50,SW-620 colon,19.8 µM
same,TGI,SW-620 colon,> 100 µM
same,GI50,MDA-MB-435,15 µM
same,TGI,MDA-MB-435,> 88.7 µM
same,GI50,NCI-H226 lung,30.2 µM
same,TGI,NCI-H226 lung,> 100 µM
same,GI50,NCI-H522 lung,22.2 µM
same,TGI,NCI-H522 lung,60.6 µM
same,GI50,SNB-19 CNS,26.3 µM
same,TGI,SNB-19 CNS,> 100 µM
same,GI50,K-562 leukemia,3.78 µM
same,TGI,K-562 leukemia,27.3 µM
same,GI50,CCRF-CEM leukemia,21.2 µM
same,TGI,CCRF-CEM leukemia,> 100 µM

# From PubChem BioAssay (NCI)
